Experimental data published in patent US11098053B2, “Enhanced osteogenic activity of daidzein analogs on human mesenchymal stem cells” (THE ADMINISTRATORS OF THE TULANE EDUCATIONAL FUND, priority 2013, dated 2021).

Columns and labels:
BMSCs [1] = tested on: BMSCs
ASCs = experiment: Osteogenic differentiation of ASCs (alizarin red); settings: 14 days
BMSCs [2] = experiment: Osteogenic differentiation of BMSCs (alizarin red); settings: 14 days
[3] = tested on: Human bone marrow derived mesenchymal stem cells (MSCs); experiment: Osteogenic differentiation of MSCs (Alizarin Red calcium deposition)
[4] = 1 μM + 100 nM fulvestrant, FIG. 12
[5] = n=6 donors, estrogen 10 nM, others 1 μM

C=CCOc1ccc2c(=O)c(-c3ccc(O)cc3)coc2c1 [2l, 7-(Allyloxy)-3-(4-hydroxyphenyl)-4H-chromen-4-one]
cytotoxicity at higher dosages (BMSCs [1]): nor lead to cytotoxicity | osteogenic potential of ASCs relative to vehicle, with fulvestrant (ASCs; [4]): 1.7 fold | osteogenic potential of ASCs relative to vehicle, inhibitor study, without fulvestrant (ASCs; 1 μM, FIG. 12): 2.4 fold | osteogenic differentiation (calcium deposition), fold relative to vehicle-treated ASCs (ASCs; [5]): 2.2 fold | osteogenic potential of BMSCs relative to vehicle, with fulvestrant (BMSCs [2]; [4]): 1.5 fold | osteogenic potential of BMSCs relative to vehicle, inhibitor study, without fulvestrant (BMSCs [2]; 1 μM, FIG. 12): 2.0 fold | osteogenic differentiation (calcium deposition), fold relative to vehicle-treated BMSCs (BMSCs [2]; [5]): 1.9 fold | differentiation at day 7 ([3]; day 7): enhanced differentiation at day 7 | osteogenic activity (structure-activity summary, in words) ([3]; donor MSCs, 1 μM, 14 days): marked enhancement | IC50 ([3]; read-out: IC50 averaged among the three donors, mean of three donors, 14 days): 138 nM | induction category of osteogenic differentiation (no, low, high induction) ([3]; screen, MSCs from one donor (Donor 1), analogs and daidzein 1 μM, estrogen 10 nM, 14 days): high inducers | osteogenesis averaged over all three donors, relative to vehicle treated MSCs ([3]; three donors, 1 μM, 14 days): 2.0±0.18
